Test results as given in article PMC4037565 (Organic & biomolecular chemistry, 2013).
pKd: −log10 of the molar value. Square brackets hold non-standard residues; d marks the D form. Peptide text beside a SMILES is read from it. Lys(N3) = [N-]=[N+]=NCCCC[C@H](N)C(=O)O; Orn = NCCC[C@H](N)C(=O)O; Pra = C#CC[C@H](N)C(=O)O

What was measured:
[1] = Solubility under NMR/CD buffer conditions; format: physicochemical; conditions: 50 mM KD2PO4, pH 7, 20°C
[2] = read-out: Kd / binding constant for ATP; parent peptide; cited from earlier work

Row | Compound | solubility (observation) [1] | pKd [2]
1 | C#CC[C@H](NC(=O)[C@H](CCCNC(=N)N)NC(C)=O)C(=O)N[C@H](C(=O)N[C@@H](CCCCN)C(=O)N[C@H](C(=O)N[C@@H](CC(N)=O)C(=O)NCC(=O)N[C@@H](CCCN)C(=O)N[C@@H](Cc1c[nH]c2ccccc12)C(=O)N[C@H](C(=O)N[C@@H](CCCCN=[N+]=[N-])C(=O)N[C@@H](CCC(N)=O)C(N)=O)[C@@H](C)CC)C(C)C)C(C)C [NHB-rev-U] (Ac-R[Pra]VKVNG[Orn]WI[Lys(N3)]Q-NH2) | not fully soluble and formed a gel-like substance | –
2 | Ac-RWVKVNGOWIKQ-NH2 [WKWK] | – | 3.77
